Values joined by “and” are separate entries in the source; they are usually repeats but may differ in a detail not shown here. Equal values may be shown once. Inconclusive results and toxic doses are left out. No stated cut-off is given here; in the data, active means T/C of 150% or more; inactive means T/C below 125%.
System: L1210 leukemia ip in BDF1 mice, survival T/C
Assay: NCI In Vivo Anticancer Drug Screen. Data for tumor model L1210 Leukemia (intraperitoneal) in B6D2F1 (BDF1) mice
Conditions: endpoint: mean survival time, higher = longer survival
Procedure, shortened: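 Each compound was tested against a transplantable tumor grown in mice. The endpoint was survival, with treated animals benchmarked against vehicle controls as a simple ratio.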

[1] = dose: 100.0 mg/kg/injection, schedule: Q01DX009 (ip), vehicle: Klucel (hydroxypropylcellulose) (HPC)
[2] = dose: 200.0 mg/kg/injection, schedule: Q01DX009 (ip), vehicle: Klucel (hydroxypropylcellulose) (HPC)
[3] = dose: 400.0 mg/kg/injection, schedule: Q01DX009 (ip), vehicle: Klucel (hydroxypropylcellulose) (HPC)
[4] = dose: 50.0 mg/kg/injection, schedule: Q01DX001 (ip), vehicle: saline
[5] = dose: 100.0 mg/kg/injection, schedule: Q01DX001 (ip), vehicle: saline
[6] = dose: 200.0 mg/kg/injection, schedule: Q01DX001 (ip), vehicle: saline
[7] = dose: 400.0 mg/kg/injection, schedule: Q01DX001 (ip), vehicle: saline
[8] = dose: 100.0 mg/kg/injection, schedule: Q01DX001 (ip), vehicle: saline with Tween-80
[9] = dose: 200.0 mg/kg/injection, schedule: Q01DX001 (ip), vehicle: saline with Tween-80
[10] = dose: 400.0 mg/kg/injection, schedule: Q01DX001 (ip), vehicle: saline with Tween-80
[11] = dose: 100.0 mg/kg/injection, schedule: Q04DX002 (ip), vehicle: Klucel (hydroxypropylcellulose) (HPC)
[12] = dose: 200.0 mg/kg/injection, schedule: Q04DX002 (ip), vehicle: Klucel (hydroxypropylcellulose) (HPC)
[13] = dose: 100.0 mg/kg/injection, schedule: Q04DX003 (ip), vehicle: Klucel (hydroxypropylcellulose) (HPC)
[14] = dose: 200.0 mg/kg/injection, schedule: Q04DX003 (ip), vehicle: Klucel (hydroxypropylcellulose) (HPC)

Measured: T/C

O=C(O)/C=C\C(=O)Nc1ccccc1Cl
inactive: [1] 102 % of control | [2] 100 % of control | [3] 97 % of control

CNC(=S)N/N=C/C(C)=N/NC(=S)NC
inactive: dose: 4.0 mg/kg/injection, schedule: Q01DX Z (ip), vehicle: carboxymethylcellulose (CMC) 102 % of control | dose: 8.0 mg/kg/injection, schedule: Q01DX Z (ip), vehicle: carboxymethylcellulose (CMC) 97 % of control | dose: 10.0 mg/kg/injection, schedule: Q04DX003 (ip), vehicle: saline 98 % of control | dose: 16.0 mg/kg/injection, schedule: Q01DX Z (ip), vehicle: carboxymethylcellulose (CMC) 95 % of control and 103 % of control | dose: 20.0 mg/kg/injection, schedule: Q04DX003 (ip), vehicle: saline 100 % of control | dose: 31.0 mg/kg/injection, schedule: Q01DX Z (ip), vehicle: carboxymethylcellulose (CMC) 95 % of control | dose: 40.0 mg/kg/injection, schedule: Q04DX003 (ip), vehicle: saline 96 % of control | [4] 86 % of control | dose: 62.0 mg/kg/injection, schedule: Q01DX Z (ip), vehicle: carboxymethylcellulose (CMC) 93 % of control and 100 % of control | dose: 80.0 mg/kg/injection, schedule: Q04DX003 (ip), vehicle: saline 93 % of control | [5] 95 % of control | dose: 125.0 mg/kg/injection, schedule: Q01DX Z (ip), vehicle: carboxymethylcellulose (CMC) 90 % of control and 91 % of control | [6] 89 % of control | dose: 250.0 mg/kg/injection, schedule: Q01DX Z (ip), vehicle: carboxymethylcellulose (CMC) 93 % of control | [7] 95 % of control | dose: 500.0 mg/kg/injection, schedule: Q01DX Z (ip), vehicle: carboxymethylcellulose (CMC) 90 % of control | dose: 1000.0 mg/kg/injection, schedule: Q01DX Z (ip), vehicle: carboxymethylcellulose (CMC) 90 % of control | dose: 125.0 micrograms/kg/injection, schedule: Q01DX009 (ip), vehicle: saline 101 % of control | dose: 250.0 micrograms/kg/injection, schedule: Q01DX009 (ip), vehicle: saline 98 % of control | dose: 500.0 micrograms/kg/injection, schedule: Q01DX009 (ip), vehicle: saline 98 % of control | dose: 1000.0 micrograms/kg/injection, schedule: Q01DX009 (ip), vehicle: saline 107 % of control

CN(C)c1ccnc(SCc2ccc(Cl)cc2Cl)n1
inactive: dose: 25.0 mg/kg/injection, schedule: Q01DX Z (ip), vehicle: methylcellulose (MC) 92 % of control | dose: 50.0 mg/kg/injection, schedule: Q01DX Z (ip), vehicle: methylcellulose (MC) 94 % of control

O=C(NCCCCNC(=O)Nc1cccc(C2=NCCCN2)c1)Nc1cccc(C2=NCCCN2)c1
inactive: dose: 0.65 mg/kg/injection, schedule: Q01DX Z (ip), vehicle: carboxymethylcellulose (CMC) 97 % of control | dose: 1.3 mg/kg/injection, schedule: Q01DX Z (ip), vehicle: carboxymethylcellulose (CMC) 97 % of control

Cc1nc(N)[nH]c(=O)c1CCCNS(=O)(=O)c1ccc(C(=O)CBr)cc1
inactive: dose: 100.0 mg/kg/injection, schedule: Q01DX001 (ip), vehicle: carboxymethylcellulose (CMC) 93 % of control | dose: 200.0 mg/kg/injection, schedule: Q01DX001 (ip), vehicle: carboxymethylcellulose (CMC) 87 % of control | dose: 400.0 mg/kg/injection, schedule: Q01DX001 (ip), vehicle: carboxymethylcellulose (CMC) 96 % of control

N=c1ccc2cc3ccc4ccccc4c3n(O)c-2c1
inactive: [8] 113 % of control | [9] 95 % of control | [10] 113 % of control

CN(C)S(=O)(=O)c1ccc(CCc2ccccc2)cc1
inactive: [4] 101 % of control | [5] 95 % of control | [6] 95 % of control | [7] 95 % of control

O=[N+]([O-])c1ccc(N/N=C(\c2ccccc2)C2CCC2)c([N+](=O)[O-])c1
inactive: dose: 50.0 mg/kg/injection, schedule: Q04DX002 (ip), vehicle: Klucel (hydroxypropylcellulose) (HPC) 99 % of control | [11] 96 % of control | [12] 96 % of control

CC1(C)N=C(N)N=C(N)N1c1cccc(OCc2cccc(NC(=O)CBr)c2)c1
inactive: dose: 5.0 mg/kg/injection, schedule: Q01DX001 (ip), vehicle: saline 106 % of control | dose: 10.0 mg/kg/injection, schedule: Q01DX001 (ip), vehicle: saline 103 % of control | dose: 20.0 mg/kg/injection, schedule: Q01DX001 (ip), vehicle: saline 103 % of control | dose: 40.0 mg/kg/injection, schedule: Q01DX001 (ip), vehicle: saline 97 % of control

C1CC[N-]CC1.Oc1ccccc1C=NCCN=Cc1ccccc1O.[Co]
inactive: dose: 6.25 mg/kg/injection, schedule: Q04DX002 (ip), vehicle: saline with Tween-80 90 % of control

Cc1cc(=O)[nH][nH]c1=O
inactive: dose: 50.0 mg/kg/injection, schedule: Q01DX009 (ip), vehicle: Klucel (hydroxypropylcellulose) (HPC) 97 % of control | dose: 50.0 mg/kg/injection, schedule: Q04DX003 (ip), vehicle: Klucel (hydroxypropylcellulose) (HPC) 106 % of control | [8] 95 % of control | [1] 105 % of control | [13] 103 % of control | dose: 100.0 mg/kg/injection, schedule: Q04DX003 (ip), vehicle: saline 94 % of control | [9] 92 % of control | [2] 101 % of control | [14] 101 % of control | dose: 200.0 mg/kg/injection, schedule: Q04DX003 (ip), vehicle: saline 97 % of control | [10] 100 % of control | dose: 400.0 mg/kg/injection, schedule: Q04DX003 (ip), vehicle: saline 97 % of control

O=C(NC(Cc1ccc(O)cc1)C(=O)O)SCc1ccccc1 (stereo unspecified)
inactive: dose: 100.0 mg/kg/injection, schedule: Q01DX001 (ip), vehicle: other 100 % of control | dose: 200.0 mg/kg/injection, schedule: Q01DX001 (ip), vehicle: other 102 % of control | dose: 400.0 mg/kg/injection, schedule: Q01DX001 (ip), vehicle: other 102 % of control

O=Cc1c(Cl)c(Cl)c(C=O)c(Cl)c1Cl
inactive: [4] 103 % of control | [5] 103 % of control | [1] 107 % of control | [13] 102 % of control | [6] 100 % of control | [2] 115 % of control | [14] 101 % of control | [7] 105 % of control | [3] 103 % of control | dose: 400.0 mg/kg/injection, schedule: Q04DX003 (ip), vehicle: Klucel (hydroxypropylcellulose) (HPC) 98 % of control

CCCCCOC(=O)CCCc1ccc(N(CCCl)CCCl)cc1
inactive: dose: 50.0 mg/kg/injection, schedule: Q01DX009 (ip), vehicle: saline 123 % of control | dose: 100.0 mg/kg/injection, schedule: Q01DX009 (ip), vehicle: saline 86 % of control

CN(C)c1ccc(C=Nc2ccc(Cc3ccncc3)cc2)cc1
inactive: [1] 99 % of control | [2] 98 % of control | [3] 100 % of control

O=S(=O)(CCCl)Cc1ccc(Cl)cc1
inactive: [11] 104 % of control | [12] 93 % of control

Cc1cccc(N)[n+]1CCC(=O)O
inactive: dose: 75.0 mg/kg/injection, schedule: Q04DX003 (ip), vehicle: saline 101 % of control | dose: 150.0 mg/kg/injection, schedule: Q04DX003 (ip), vehicle: saline 94 % of control | dose: 300.0 mg/kg/injection, schedule: Q04DX003 (ip), vehicle: saline 95 % of control
